Row | SMILES | melting point
1 | CS(=O)(=O)c1ccc(OCCCCC(=O)O)cc1 | 125 to 127 °C
2 | Nc1ccc(Cc2nc3ccccc3s2)cc1 | 219 to 221 °C
3 | O=C(O)CS(=O)(=O)Cc1cccs1 | 107 to 109 °C
4 | Cc1n[nH]c(C)c1S(=O)(=O)N1CCC(=O)CC1 | 191 to 193 °C
5 | O=Cc1ccccc1OCc1cn2ccccc2n1 | 123 to 125 °C
6 | O=C(O)c1cc(N=Nc2ccc(S(=O)(=O)Nc3ccccn3)cc2)ccc1O | 260 to 265 °C
7 | Sc1nc(-c2cc3ccccc3o2)no1 | 152 to 154 °C
8 | NS(=O)(=O)c1ccc2c(c1)CC(C(=O)O)CO2 (stereo unspecified) | 213 to 215 °C
9 | O=Cc1cc(Br)c(OCc2ccccc2)c(Br)c1 | 78 to 80 °C
10 | Cc1ccccc1-n1c(S)nc2scc(-c3ccccc3)c2c1=O | 157 to 159 °C
11 | O=C(O)CSc1nccn1-c1ccc(C(F)(F)F)cc1 | 119 to 121 °C
12 | Nc1ccc(Cl)cc1-c1nc(C2CCCC2)no1 | 107 to 109 °C
13 | CCCOc1ccc2c(c1)OCC(C=O)=C2 | 55 to 57 °C
14 | ClCCc1ncc(-c2ccccc2)o1 | 68 to 70 °C
15 | NC(=O)CC1CCNCC1 | 146 to 148 °C
16 | O=S(=O)(Cl)c1csc(-c2ccc(Cl)cc2)n1 | 93 to 95 °C
17 | CCn1cc(N2C(=O)C=CC2=O)cn1 | 92 to 94 °C
18 | Nc1ccc(C(=O)N2CCC(CO)CC2)cc1 | 138 to 140 °C
19 | O=C(O)CNC(=O)CC1CCCC1 | 98 to 100 °C
20 | CC(C)(C)OC(=O)N1CCC2(C1)NC(=O)NC2=O (stereo unspecified) | 214 to 216 °C
21 | O=[N+]([O-])c1c(Cl)ccc2ncccc12 | 119 to 121 °C
22 | Nc1ccc(F)cc1Nc1ccccc1F | 53 to 55 °C
23 | N#Cc1ccc(NC2CC2)cc1 | 79 to 81 °C
24 | Fc1nc(C(F)(F)F)ccc1I | 48 to 50 °C

Row | SMILES | melting point
25 | CC(C)(C)Cc1noc2ncc(C(=O)O)cc12 | 231 to 233 °C
26 | Fc1ncccc1OCc1ccccc1 | 34 to 36 °C
27 | O=C(O)c1cnc2n1CCCC2 | 219 to 221 °C
28 | Oc1ccc(-c2ccc(F)cc2)nn1 | 269 to 271 °C
29 | O=C(O)CCCc1ccc2c(c1)CC(=O)N2 | 180 to 182 °C
30 | Nc1ccnc2ccncc12 | 254 to 256 °C
31 | Cc1sc2ncnc(NCC(=O)O)c2c1C | 244 to 246 °C
32 | O=Cc1[nH]nnc1-c1ccccc1 | 169 to 171 °C
33 | O=C(CCl)Nc1cccnc1 | 179 to 181 °C
34 | O=CCCc1nc2ccccc2o1 | 62 to 64 °C
35 | CSC(=NS(C)(=O)=O)SC | 88 to 90 °C
36 | O=C(O)Cn1c(-c2cccc(Cl)c2Cl)nc2ccccc21 | 235 to 237 °C
37 | CC(C)NO | 73 to 75 °C
38 | N#CCCN1C(=O)NC2(CCCC2)C1=O | 104 to 106 °C
39 | CCC(C)C1NC(C(=O)O)CS1 (stereo unspecified) | 177 to 179 °C
40 | Cc1nccn1-c1ccc(Cl)nn1 | 122 to 124 °C
41 | COC(=O)c1c(N)sc2c1CCCCC2 | 94 to 98 °C
42 | Cc1c(C=O)c2ccccn2c1C=O | 214 to 216 °C
43 | COc1ccc(OCc2nc(C=O)cs2)cc1 | 95 to 97 °C
44 | Cn1c(S)nnc1C1CCC1 | 124 to 126 °C
45 | NCCc1c[nH]c2cc(Cl)ccc12 | 104 to 106 °C
46 | Cc1ccc(C)n1-c1cn[nH]c1 | 155 to 157 °C
47 | O=C(CCl)Nc1ccc(O)cc1 | 145 to 147 °C
48 | O=C(O)CCCn1ccccc1=O | 121 to 123 °C

Row | SMILES | melting point
49 | CC(C)CCOc1ccc(C2(C)NC(=O)NC2=O)cc1 (stereo unspecified) | 110 to 112 °C
50 | COc1ncc(Br)cc1CC#N | 39 to 41 °C
51 | OCC(c1ccc(Br)cc1)N1CCNCC1 (stereo unspecified) | 109 to 111 °C
52 | Fc1ccc2nc(-c3ccccn3)[nH]c2c1 | 159 to 161 °C
53 | C=CCn1c(S)nc2cc3ccccc3cc2c1=O | 285 to 287 °C
54 | COc1cc(OC)cc(-n2c(C)c(C)c(C#N)c2N)c1 | 166 to 168 °C
55 | Nc1nc(Cl)ccc1F | 84 to 86 °C
56 | NC(=NO)C12CC3CC(CC(C3)C1)C2 | 152 to 154 °C
57 | N#Cc1c(OCCO)n[nH]c1N | 163 to 165 °C
58 | CCCC(=O)N1CCCC1C(=O)O (stereo unspecified) | 115 to 117 °C
59 | NC(=S)CF | 53 to 55 °C
60 | N#CCc1ccc(OCC(=O)O)cc1 | 148 to 150 °C
61 | COc1ccc(-c2csc3ncnc(Cl)c23)cc1 | 163 to 167 °C
62 | Cc1csc(CC(N)=S)n1 | 126 to 128 °C
63 | COc1nc(C)cc(C)c1C#N | 96 to 98 °C
64 | COC(=O)C(CC(C)C)NC(N)=O (stereo unspecified) | 68 to 70 °C
65 | Nc1nnc(-c2ccc(F)cc2)o1 | 246 to 248 °C
66 | CC1(c2ccc3c(c2)CCC3)NC(=O)NC1=O (stereo unspecified) | 188 to 190 °C
67 | O=Cc1nc(-c2ccccc2)c[nH]1 | 170 to 172 °C
68 | CCOC(=O)c1sc2nc(Cc3ccccn3)[nH]c(=O)c2c1C | 231 to 233 °C
69 | Cc1nc(N(C)C)sc1C=O | 116 to 118 °C
70 | O=C(O)c1nccn2ccnc12 | 167 to 169 °C
71 | CC1CCCN(S(=O)(=O)c2ccc(N)cc2)C1 (stereo unspecified) | 129 to 131 °C

Results, then the molecule that gave them:

Row | melting point | SMILES
72 | 96 to 98 °C | CS(=O)(=O)Nc1ccccc1I
73 | 95 to 97 °C | CCSc1cccc(C(=O)O)c1
74 | 75 to 77 °C | CC(Cl)C(=O)Nc1ccccc1Br (stereo unspecified)
75 | 39 to 41 °C | ClCc1ncc(-c2ccccc2)s1
76 | 113 to 115 °C | CC(C)c1ccc(OCCC(=O)O)cc1
77 | 161 to 163 °C | Cc1ccc(Cn2nc(C)c(/C=C/C(=O)O)c2C)cc1
78 | 146 to 148 °C | COc1ccc(NC(=O)NN)cc1
79 | 140 to 142 °C | Nc1ncc(Cc2cccc(Cl)c2Cl)s1
80 | 66 to 68 °C | NCC(O)COc1cccc(C(F)(F)F)c1 (stereo unspecified)
81 | 99 to 101 °C | Cn1cnc2cc(C=O)ccc21
82 | 249 to 251 °C | NC(Cc1ccc2c(c1)OCO2)C(=O)O (stereo unspecified)
83 | 132 to 134 °C | COC(=O)c1ccc(NC(C)=O)c(C)c1
84 | 94 to 96 °C | CC(c1cc(Cl)ccc1Cl)n1nccc1N (stereo unspecified)
85 | 57 to 59 °C | COc1ccc(COc2cccc(F)c2)cc1N
86 | 223 to 225 °C | CCC1=C(C(=O)O)Cc2ccccc2O1
87 | 111 to 114 °C | COc1cc(SC)ccc1C(=O)O
88 | 225 to 227 °C | O=C(O)/C=C/c1csc2ccccc12
89 | 32 to 34 °C | COC(=O)CSc1cncc(Cl)n1
90 | 49 to 51 °C | CCn1c(C=O)nc2ccccc21
91 | 45 to 47 °C | O=S(=O)(Cl)Cc1ccc(F)cc1Br
92 | 62 to 64 °C | O=C(Cl)c1cc([N+](=O)[O-])ccc1Br
93 | 272 to 274 °C | Nc1ccc(C(=O)Nc2ccc3cn[nH]c3c2)cc1
94 | 57 to 59 °C | CNC(CO)c1ccc(OC)cc1 (stereo unspecified)
95 | 89 to 91 °C | O=[N+]([O-])c1cccc(F)c1S(=O)(=O)Cl
96 | 66 to 68 °C | Cc1cc(C#N)ccc1CO

Row | melting point | SMILES
97 | 90 to 94 °C | Cc1sc(N)nc1-c1cccc(Cl)c1
98 | 92 to 94 °C | Nc1ccccc1C(=O)NCCO
99 | 149 to 151 °C | COc1cccc(OC)c1CC(=O)O
100 | 99 to 101 °C | CCOC(=O)CNc1cc(Cl)cc(Cl)c1
101 | 125 to 127 °C | Oc1cccc(CNC2CC2)c1
102 | 143 to 145 °C | COc1ccc(Br)cc1C(N)=S
103 | 198 to 200 °C | O=C(O)CC(O)c1cc(Cl)cc(Cl)c1 (stereo unspecified)
104 | 154 to 156 °C | COc1ccccc1NC(=O)CC(=O)Nc1ccccc1OC
105 | 72 to 74 °C | CNC1CC(=O)N(Cc2ccccc2)C1=O (stereo unspecified)
106 | 127 to 129 °C | O=C(O)CNS(=O)(=O)c1ccc(Cl)c(Cl)c1
107 | 259 to 261 °C | NC(=O)CNS(=O)(=O)c1cccc(C(=O)O)c1
108 | 95 to 97 °C | COC(=O)Nc1cccc(O)c1
109 | 76 to 78 °C | COC(=O)CCNc1ccc(F)cc1[N+](=O)[O-]
110 | 87 to 89 °C | CC(Oc1ccc(F)cc1Br)C(=O)O (stereo unspecified)
111 | 55 to 57 °C | CC(C)(O)COc1ccc(N)cc1
112 | 169 to 171 °C | O=Cc1c[nH]c2cccc(F)c12
113 | 155 to 157 °C | NC(=O)Nc1ccccc1-c1ccccc1
114 | 135 to 137 °C | CC1CCC(NC(=O)C(C)Cl)CC1 (stereo unspecified)
115 | 106 to 108 °C | COC(=O)C1CCN(c2nc3ccccc3o2)CC1
116 | 139 to 141 °C | Nc1ccc(NC(=O)c2ccccc2)nc1
117 | 107 to 109 °C | Nc1cccc(Oc2ccncc2)c1
118 | 88 to 90 °C | CN(C)CCNS(=O)(=O)c1ccc(Cl)c([N+](=O)[O-])c1
119 | 190 to 192 °C | Cc1ccc(Cn2ncc3c(C(=O)O)cc(C)nc32)cc1
120 | 71 to 73 °C | Cc1ccc(C(=O)c2cccnc2)cc1
121 | 81 to 83 °C | CSc1cccc(NC(=O)C(C)Cl)c1 (stereo unspecified)

Row | melting point | SMILES
122 | 145 to 155 °C | O=C(O)c1cccc(CN2CCCC2=O)c1
123 | 120 to 122 °C | CCOC(=O)c1sc(-c2ccc(OC)cc2)cc1N
124 | 110 to 112 °C | CS(=O)c1cccc(N)c1 (stereo unspecified)
125 | 203 to 205 °C | Cc1cc(C(=O)O)ccc1N1C(=O)C=CC1=O
126 | 56 to 58 °C | Cc1nc(-c2cccc(N)c2)n[nH]1
127 | 159 to 161 °C | O=C(O)CSc1ccc(Cl)cc1[N+](=O)[O-]
128 | 207 to 209 °C | CCS(=O)(=O)c1ccc(NC(=O)CCl)c(O)c1
129 | 150 to 152 °C | O=C(O)c1coc2ccccc12
130 | 62 to 64 °C | CC(Br)c1ccc2ccccc2c1 (stereo unspecified)
131 | 120 to 122 °C | CC(=O)c1ccc(N(C)C)cc1O
132 | 188 to 190 °C | Cc1nc2ccccn2c1C(=O)NN
133 | 44 to 46 °C | CCOc1ccccc1OCC(=O)O
134 | 211 to 213 °C | CCc1nc2ccccc2n1CC(=O)NN
135 | 148 to 149 °C | CS(=O)(=O)c1ccc(Cl)c(NC(=O)CCl)c1
136 | 150 to 152 °C | N#Cc1cccc(-n2cncn2)c1
137 | 88 to 90 °C | COC(=O)C(=O)CC(=O)c1c(F)cccc1F
138 | 154 to 156 °C | CCOc1ccc(C(=O)NCC(=O)O)cc1
139 | 97 to 99 °C | COc1ccc(CNC(=O)C(C)Cl)cc1OC (stereo unspecified)
140 | 181 to 183 °C | O=C(O)C(c1ccccc1)N1CCc2ccccc21 (stereo unspecified)
141 | 101 to 103 °C | CC(CC(=O)O)c1ccc(Br)cc1 (stereo unspecified)
142 | 132 to 134 °C | CN(CC(C)(C)C)C(=O)c1cccc(C(=O)O)c1
143 | 45 to 47 °C | CNS(=O)(=O)c1ccc(Cl)s1
144 | 106 to 110 °C | O=C(O)Cc1csc(-c2cccc(Br)c2)n1
145 | 121 to 123 °C | O=C(O)c1cc(Cl)ccc1OCC(F)(F)F
146 | 142 to 144 °C | NC(CC(=O)Nc1ccc(F)cc1)=NO

From a melting point compilation (Tetko et al.)
